Key:
Human recombinant TDP1 = target: T1, Human recombinant TDP1 (Homo sapiens, UniProt Q9NUW8); assay: Real-time oligonucleotide biosensor assay of TDP1 activity; type: biochemical; conditions: 1.5 nM TDP1, 50 nM biosensor, 26 °C, at least three experiments; read-out: TDP1 inhibitory activity IC50
T1 construct: made in house
Procedure: The inhibiting activity of the compounds against TDP1 was investigated using a real-time oligonucleotide biosensor assay.
The biosensor (5′-[FAM] AAC GTC AGGGTC TTC C [BHQ]-3′) was synthesized in the Laboratory of Nucleic Acid Chemistry at the Institute of Chemical Biology and Fundamental Medicine (Novosibirsk, Russia) and was used for TDP1 enzyme activity real-time fluorescence detection. The reaction mixture (200 µL) contained a TDP1 reaction buffer (50 mM Tris-HCl, pH 8.0, 50 mM NaCl, and 7 mM β-mercaptoethanol), 50 nM oligonucleotide, varied concentrations of the tested compounds, and purified TDP1 in a final concentration of 1.5 nM. The recombinant TDP1 was purified to homogeneity by chromatography on Ni-chelating resin and phosphocellulose P11, as described, using plasmid pET 16B-TDP1, kindly provided by Dr. K.W. Caldecott (University of Sussex, United Kingdom).
The reaction mixtures were incubated at a constant temperature of 26 °C in a POLARstar OPTIMA fluorimeter (BMG LABTECH, GmbH, Ortenberg, Germany). Fluorescence intensity was measured (Ex485/Em520 nm) every 1 min for 10 min. The average values of the half maximal inhibitory concentration (IC50) were determined using a six-point concentration response curve and calculated using MARS Data Analysis 2.0 (BMG LABTECH). The 50% inhibitory concentration (IC50) was defined as the concentration of the compound that inhibited 50% of the enzyme activity, when compared to the untreated controls. At least three independent experiments were carried out to obtain the IC50 values.

MRC-5 cells = assay: Effect of compounds on topotecan cytotoxicity, MRC-5 (EZ4U); type: cell-based, human; conditions: MRC-5, 10 μM compound, topotecan 1 to 10 μM
Procedure: According the EZ4U test data the thiazolidine-2,4-diones were shown not to enhance the cytotoxic effect of topotecan at 10 μM (Figure 2C,D). […] It can be speculated that the decisive factor is the use of the thiazolidine-2,4-dione fragment as a central molecular scaffold, which is a pharmacophore for many targets. In particular, thiazolidine-2,4-diones are well-known for their antidiabetic, antitumor [20], and anti-inflammatory activities. Such promiscuity can lead to binding to a number of proteins/enzymes in cells other than TDP1.
Human colon adenocarcinoma HCT-116 and human lung fibroblast MRC-5 cell lines were provided by the Cell Culture Bank of the State Research Center for Virology and Biotechnology Vector, Novosibirsk, Russia. Cells were cultured in DMEM medium (Invitrogen) supplemented with 10% fetal bovine serum (FBS) (Invitrogen), penicillin (100 units/mL), and streptomycin (100 µg/mL) at 37 °C and 5% CO2 in a humid atmosphere. After the formation of a 30–50% monolayer, the tested compounds were added to the medium. Because the compounds are soluble in DMSO, we minimized the DMSO content in the culture medium. The volume of the added reagents was 1/100 of the total volume of the culture medium, and the amount of DMSO was 1% of the final volume. Control cells were grown in the presence of 1% DMSO. […]

T1 sequence (Q9NUW8 whole entry): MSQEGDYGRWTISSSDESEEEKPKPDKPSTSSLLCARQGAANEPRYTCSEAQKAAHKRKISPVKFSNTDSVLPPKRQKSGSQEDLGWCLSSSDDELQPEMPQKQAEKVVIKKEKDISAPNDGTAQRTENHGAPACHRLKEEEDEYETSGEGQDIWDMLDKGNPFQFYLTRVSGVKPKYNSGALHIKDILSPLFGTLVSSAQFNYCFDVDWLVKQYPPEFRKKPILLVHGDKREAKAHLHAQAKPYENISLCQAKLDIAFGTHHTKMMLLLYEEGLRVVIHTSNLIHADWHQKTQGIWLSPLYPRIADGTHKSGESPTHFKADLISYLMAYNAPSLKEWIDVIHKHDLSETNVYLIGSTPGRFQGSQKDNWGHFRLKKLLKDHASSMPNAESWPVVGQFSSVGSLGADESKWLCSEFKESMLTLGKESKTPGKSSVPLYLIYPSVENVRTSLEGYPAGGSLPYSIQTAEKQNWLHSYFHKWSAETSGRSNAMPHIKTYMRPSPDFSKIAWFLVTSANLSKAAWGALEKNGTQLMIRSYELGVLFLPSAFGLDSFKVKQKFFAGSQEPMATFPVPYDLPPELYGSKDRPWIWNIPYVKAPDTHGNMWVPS

CC1(C)[C@H]2CC=C(CCN3C(=O)S/C(=C\c4ccc(Br)s4)C3=O)[C@@H]1C2 [Compound 21b, (Z)-5-((5-bromothiophen-2-yl)methylene)-3-(2-((1R,5S)-6,6-dimethylbicyclo[3.1.1]hept-2-en-2-yl)ethyl)thiazolidine-2,4-dione]
IC50 (Human recombinant TDP1): 2500 ± 400 nM
effect on the cytotoxic effect of topotecan (MRC-5 cells): protects MRC-5 cells
